In patent publication US20160244436A1, “NOVEL FUNCTIONALIZED 5-(PHENOXYMETHYL)-1,3-DIOXANE ANALOGS EXHIBITING CYTOCHROME P450 INHIBITION AND THEIR METHOD OF USE” (CORTENDO AB (PUBL), priority 2013, published 2016):

Tests used:
recombinant CYP-21 = molecular target: T1, recombinant CYP-21 (Homo sapiens, UniProt P08686); experiment: Cyp21 assay: AD293 cells over-expressing recombinant CYP-21, 11-deoxycortisol formation from 17α-OH Progesterone by LC/MS; format: cell-based
T1 construct: expressed in transfected cells; host or cells: AD293
T1 sequence (P08686 1-495): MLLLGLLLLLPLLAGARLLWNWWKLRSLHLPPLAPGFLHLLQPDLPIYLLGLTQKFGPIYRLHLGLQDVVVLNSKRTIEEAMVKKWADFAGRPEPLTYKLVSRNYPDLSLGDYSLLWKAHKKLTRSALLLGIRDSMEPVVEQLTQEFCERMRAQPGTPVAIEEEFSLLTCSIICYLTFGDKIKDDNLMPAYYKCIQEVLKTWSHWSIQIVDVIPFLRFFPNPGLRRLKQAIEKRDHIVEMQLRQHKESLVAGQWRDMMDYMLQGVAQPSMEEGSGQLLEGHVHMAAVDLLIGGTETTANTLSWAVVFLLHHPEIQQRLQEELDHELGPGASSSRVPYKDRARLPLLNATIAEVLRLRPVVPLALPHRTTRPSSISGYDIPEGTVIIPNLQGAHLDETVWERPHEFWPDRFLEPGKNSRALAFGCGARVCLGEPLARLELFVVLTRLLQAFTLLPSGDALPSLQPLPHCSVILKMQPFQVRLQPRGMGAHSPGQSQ
Description: Cyp21 assay protocol: AD293 cells that stably over-express recombinant CYP-21 were seeded in 96 well plates coated with poly D-lysine (10,000 cell per well) and incubated at 37° C. for 24 hours in Dulbecco's Modified Eagle Medium (DMEM) with Fetal Bovine Serum (FBS) that is stripped of hormones by charcoal treatment. The media is then removed, the cells are washed once with Phosphate buffer saline solution, and 50 μL Dulbecco's Modified Eagle Medium (DMEM) with Fetal Bovine Serum (FBS) that is stripped of hormones by charcoal treatment is added. Compounds of the disclosure are then added to the wells in eight concentration spanning 10 μM to 4.5 nM, and the plates are incubated for an additional 60 minutes at 37° C. 17α-OH Progesterone is then added (1.0 μM) and the plates are incubated for an additional 45 minutes at 37° C. After incubation, 50 uL of the supernatant (medium) is transferred into a fresh plate and 150 uL of an acetonitrile solution containing 200 ng/ml of Telmisartan is added. The sample is mixed and then placed in a centrifuge at 2000 rpm for 5 minutes. 100 uL of the supernatant is transferred into a fresh 96 well deep well plate, 100 uL of 1:1 methanol:water was added, the solution was mixed and then analyzed by LC/MS for the presence of 11-deoxycortisol using an Agilent 1200 RRLC/ABSCIEX API4000 LC-MS or Shimadzu Prominance/ABSCIEX API4000 LC-MS to determine IC5os of the compounds of the disclosure.

recombinant CYP-17 = molecular target: T2, recombinant CYP-17 (Homo sapiens, UniProt P05093); experiment: Cyp17 assay: AD293 cells over-expressing recombinant CYP-17, 3H-acetic acid release from [21-3H] 17α-hydroxyl-Pregnenolone; format: cell-based
T2 construct: expressed in transfected cells; host or cells: AD293
T2 sequence (P05093 1-508): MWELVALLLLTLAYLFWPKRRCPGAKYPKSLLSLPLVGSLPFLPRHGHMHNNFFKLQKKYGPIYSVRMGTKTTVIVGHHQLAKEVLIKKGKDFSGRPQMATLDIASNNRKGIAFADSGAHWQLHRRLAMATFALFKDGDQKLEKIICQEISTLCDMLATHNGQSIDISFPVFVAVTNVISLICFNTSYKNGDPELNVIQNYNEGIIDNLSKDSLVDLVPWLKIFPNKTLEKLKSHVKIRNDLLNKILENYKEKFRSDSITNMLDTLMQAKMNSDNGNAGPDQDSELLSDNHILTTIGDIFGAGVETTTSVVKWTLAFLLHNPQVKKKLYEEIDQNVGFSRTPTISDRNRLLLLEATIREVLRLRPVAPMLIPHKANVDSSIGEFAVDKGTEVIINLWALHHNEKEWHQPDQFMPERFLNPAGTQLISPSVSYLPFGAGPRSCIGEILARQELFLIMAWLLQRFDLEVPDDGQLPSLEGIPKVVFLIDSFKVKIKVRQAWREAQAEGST
Description: Cyp17 assay protocol: AD293 cells that stably over-express recombinant CYP-17 were seeded in 96 well plates coated with poly D-lysine (15,000 cell per well) and incubated at 37° C. for 24 hours in Dulbecco's Modified Eagle Medium (DMEM) with Fetal Bovine Serum (FBS) that is stripped of hormones by charcoal treatment. The media is then removed, the cells are washed once with Phosphate buffer saline solution, and 50 μL Dulbecco's Modified Eagle Medium (DMEM) with Fetal Bovine Serum (FBS) that is stripped of hormones by charcoal treatment is added. Compounds of the disclosure are then added to the wells in eight concentration spanning 10 μM to 4.5 nM, and the plates are incubated for an additional 60 minutes at 37° C. [21-^3H] 17α-hydroxyl-Pregnenolone is then added (50 nCi per well, 31.25 nM) and the plates are incubated for an additional 4 hours at 37° C. The media is then collected, 200 μL, of chloroform is added, and the mixture is shaken for 1 hour. The aqueous layer is then separated and analyzed for the presence of ^3H-acetic acid using a Perkin Elmer Topcount NXT to determine IC50s of the compounds of the disclosure.

IC50 (recombinant CYP-21): 208 nM
IC50 (recombinant CYP-17): 8 nM
Compound: CC(=O)N1CCN(c2ccc(CO[C@H]3CO[C@](Cn4ccnc4)(c4ccc(Cl)cc4Cl)OC3)cc2)CC1 [drawing 112]
